Experimental data: PubChem BioAssay AID248 (DTP/NCI, 2004)
Where “and” joins values, the source holds several entries; their conditions need not be identical. Equal values may be shown once. Inconclusive results and toxic doses are left out. Cut-off read from the data, not from the text of the source: active = T/C of 150% or more; inactive = T/C below 125%.

System: L1210 leukemia ip in BDF1 mice, survival T/C
Experiment: NCI In Vivo Anticancer Drug Screen. Data for tumor model L1210 Leukemia (intraperitoneal) in B6D2F1 (BDF1) mice
Conditions: endpoint: mean survival time, higher = longer survival
Procedure, shortened: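 Ratio derived from survival: compound-dosed mice over vehicle-dosed mice, all bearing a transplantable tumor.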

[1] = dose: 100.0 mg/kg/injection, schedule: Q04DX002 (ip), vehicle: saline with Tween-80
[2] = dose: 100.0 mg/kg/injection, schedule: Q01DX001 (ip), vehicle: saline
[3] = dose: 200.0 mg/kg/injection, schedule: Q01DX001 (ip), vehicle: saline
[4] = dose: 400.0 mg/kg/injection, schedule: Q01DX001 (ip), vehicle: saline
[5] = dose: 100.0 mg/kg/injection, schedule: Q01DX009 (ip), vehicle: Klucel (hydroxypropylcellulose) (HPC)
[6] = dose: 100.0 mg/kg/injection, schedule: Q04DX003 (ip), vehicle: Klucel (hydroxypropylcellulose) (HPC)
[7] = dose: 200.0 mg/kg/injection, schedule: Q01DX009 (ip), vehicle: Klucel (hydroxypropylcellulose) (HPC)
[8] = dose: 200.0 mg/kg/injection, schedule: Q04DX003 (ip), vehicle: Klucel (hydroxypropylcellulose) (HPC)
[9] = dose: 400.0 mg/kg/injection, schedule: Q04DX003 (ip), vehicle: Klucel (hydroxypropylcellulose) (HPC)
[10] = dose: 100.0 mg/kg/injection, schedule: Q01DX001 (ip), vehicle: carboxymethylcellulose (CMC)
[11] = dose: 200.0 mg/kg/injection, schedule: Q01DX001 (ip), vehicle: carboxymethylcellulose (CMC)
[12] = dose: 400.0 mg/kg/injection, schedule: Q01DX001 (ip), vehicle: carboxymethylcellulose (CMC)
[13] = dose: 200.0 mg/kg/injection, schedule: Q01DX009 (ip), vehicle: saline with Tween-80
[14] = dose: 400.0 mg/kg/injection, schedule: Q01DX009 (ip), vehicle: Klucel (hydroxypropylcellulose) (HPC)

Measured: T/C

O=C(/C=C(\Br)c1ccccc1)c1ccccc1
inactive: dose: 25.0 mg/kg/injection, schedule: Q01DX005 (ip), vehicle: saline with Tween-80 93 % of control | dose: 25.0 mg/kg/injection, schedule: Q01DX009 (ip), vehicle: saline with Tween-80 88 % of control | dose: 25.0 mg/kg/injection, schedule: Q04DX002 (ip), vehicle: saline with Tween-80 102 % of control | dose: 50.0 mg/kg/injection, schedule: Q01DX005 (ip), vehicle: saline with Tween-80 97 % of control | dose: 50.0 mg/kg/injection, schedule: Q01DX009 (ip), vehicle: saline with Tween-80 98 % of control | dose: 50.0 mg/kg/injection, schedule: Q04DX002 (ip), vehicle: saline with Tween-80 109 % of control | dose: 100.0 mg/kg/injection, schedule: Q01DX005 (ip), vehicle: saline with Tween-80 108 % of control | [1] 91 % of control

CN(C)c1ccc(/C=C\C=N\NC(=O)CCCC(=O)N/N=C/C=C/c2ccc(N(C)C)cc2)cc1
inactive: dose: 50.0 mg/kg/injection, schedule: Q01DX001 (ip), vehicle: saline 96 % of control | [2] 96 % of control | [3] 96 % of control | [4] 90 % of control

CC(=O)NC1CCC(CC(=O)O)CC1 (centres undefined)
inactive: dose: 100.0 mg/kg/injection, schedule: Q01DX001 (ip), vehicle: Klucel (hydroxypropylcellulose) (HPC) 94 % of control and 96 % of control | [5] 98 % of control | [6] 92 % of control | dose: 200.0 mg/kg/injection, schedule: Q01DX001 (ip), vehicle: Klucel (hydroxypropylcellulose) (HPC) 94 % of control and 102 % of control | [7] 87 % of control | [8] 99 % of control | dose: 400.0 mg/kg/injection, schedule: Q01DX001 (ip), vehicle: Klucel (hydroxypropylcellulose) (HPC) 91 % of control and 94 % of control | [9] 95 % of control

O=C1NC2C3C=CC(C3)C12 (centres undefined)
inactive: dose: 25.0 mg/kg/injection, schedule: Q04DX002 (ip), vehicle: Klucel (hydroxypropylcellulose) (HPC) 114 % of control | dose: 50.0 mg/kg/injection, schedule: Q04DX002 (ip), vehicle: Klucel (hydroxypropylcellulose) (HPC) 93 % of control | dose: 100.0 mg/kg/injection, schedule: Q04DX002 (ip), vehicle: Klucel (hydroxypropylcellulose) (HPC) 119 % of control and 86 % of control

C/C(=N\N=C(/C)c1cccc(N)c1)c1cccc(N)c1
inactive: [3] 87 % of control | [4] 87 % of control

Cc1cc(/C=C/C2=[N+](C)c3ccc(F)cc3C2(C)C)c(O)c2ncccc12
inactive: [10] 98 % of control | [11] 90 % of control | [12] 93 % of control

C=CCOC(OCC=C)C(OCC=C)OCC=C
inactive: [13] 97 % of control | dose: 400.0 mg/kg/injection, schedule: Q01DX009 (ip), vehicle: saline with Tween-80 104 % of control

Cc1ccc(C)c(NC(=O)c2ccccc2Cl)c1
inactive: [5] 115 % of control | [6] 102 % of control | [7] 120 % of control | [8] 100 % of control | [14] 120 % of control | [9] 97 % of control

CCOC(=O)CCCN(C(=O)OCc1ccccc1)N(C)C(=O)OCc1ccccc1
inactive: dose: 25.0 mg/kg/injection, schedule: Q04DX003 (ip), vehicle: saline with Tween-80 104 % of control | dose: 50.0 mg/kg/injection, schedule: Q04DX003 (ip), vehicle: saline with Tween-80 111 % of control | dose: 100.0 mg/kg/injection, schedule: Q04DX003 (ip), vehicle: saline with Tween-80 106 % of control | dose: 200.0 mg/kg/injection, schedule: Q04DX003 (ip), vehicle: saline with Tween-80 104 % of control | dose: 400.0 mg/kg/injection, schedule: Q04DX003 (ip), vehicle: saline with Tween-80 101 % of control

Cc1ccc(NC(=O)CCC(=O)O)cc1[N+](=O)[O-]
inactive: [5] 97 % of control | [7] 101 % of control | [14] 98 % of control

N#CCc1ccc(Cl)c(Cl)c1
inactive: dose: 5.0 mg/kg/injection, schedule: Q01DX001 (ip), vehicle: saline 100 % of control | dose: 10.0 mg/kg/injection, schedule: Q01DX001 (ip), vehicle: saline 105 % of control | dose: 20.0 mg/kg/injection, schedule: Q01DX001 (ip), vehicle: saline 95 % of control | dose: 40.0 mg/kg/injection, schedule: Q01DX001 (ip), vehicle: saline 95 % of control | dose: 80.0 mg/kg/injection, schedule: Q01DX001 (ip), vehicle: saline 98 % of control

CC(O)c1nc2ccccc2n1C (centres undefined)
inactive: dose: 333.0 mg/kg/injection, schedule: Q01DX Z (ip), vehicle: saline 118 % of control | dose: 500.0 mg/kg/injection, schedule: Q01DX Z (ip), vehicle: saline 98 % of control

O=[N+]([O-])CC1(O)CCCCC1
inactive: dose: 25.0 mg/kg/injection, schedule: Q01DX009 (ip), vehicle: Klucel (hydroxypropylcellulose) (HPC) 97 % of control | dose: 50.0 mg/kg/injection, schedule: Q01DX009 (ip), vehicle: Klucel (hydroxypropylcellulose) (HPC) 98 % of control

CC(=O)Nc1ccc2c(c1)C(N)c1ccccc1-2 (centres undefined)
inactive: dose: 88.0 mg/kg/injection, schedule: Q01DX Z (ip), vehicle: carboxymethylcellulose (CMC) 103 % of control | dose: 88.0 mg/kg/injection, schedule: Q01DX Z (ip), vehicle: saline 94 % of control | [2] 113 % of control | dose: 100.0 mg/kg/injection, schedule: Q01DX009 (ip), vehicle: saline 105 % of control | dose: 100.0 mg/kg/injection, schedule: Q04DX003 (ip), vehicle: saline 98 % of control | dose: 132.0 mg/kg/injection, schedule: Q01DX009 (ip), vehicle: saline with Tween-80 111 % of control | dose: 132.0 mg/kg/injection, schedule: Q01DX009 (ip), vehicle: saline 99 % of control | dose: 133.0 mg/kg/injection, schedule: Q01DX Z (ip), vehicle: carboxymethylcellulose (CMC) 92 % of control | dose: 133.0 mg/kg/injection, schedule: Q01DX Z (ip), vehicle: saline 98 % of control | [3] 113 % of control | [13] 118 % of control | dose: 200.0 mg/kg/injection, schedule: Q01DX009 (ip), vehicle: saline 108 % of control | dose: 200.0 mg/kg/injection, schedule: Q01DX Z (ip), vehicle: carboxymethylcellulose (CMC) 105 % of control | dose: 200.0 mg/kg/injection, schedule: Q04DX003 (ip), vehicle: saline 103 % of control | dose: 300.0 mg/kg/injection, schedule: Q01DX009 (ip), vehicle: saline 100 % of control | [4] 109 % of control | dose: 400.0 mg/kg/injection, schedule: Q04DX003 (ip), vehicle: saline 122 % of control

CC1c2cccc(Cl)c2C(=O)c2c(Cl)cccc21
inactive: [5] 102 % of control | [6] 108 % of control | [7] 102 % of control | [8] 102 % of control | [14] 110 % of control | [9] 96 % of control

CCN1/C(=C/c2ccc3ccccc3[n+]2CC)C=Cc2ccccc21
inactive: dose: 2.0 mg/kg/injection, schedule: Q01DX001 (ip), vehicle: other 103 % of control | dose: 8.0 mg/kg/injection, schedule: Q01DX001 (ip), vehicle: other 110 % of control | dose: 9.5 mg/kg/injection, schedule: Q01DX001 (ip), vehicle: other 101 % of control

COc1ccc(Cl)cc1NC(=O)Nc1ccc(Cl)cc1Cl
inactive: [5] 94 % of control | [6] 111 % of control | [7] 96 % of control | [8] 91 % of control | [14] 94 % of control | [9] 94 % of control

CC1SC(c2ccccc2)N(c2ccccc2)C1=O (centres undefined)
inactive: [5] 98 % of control | [6] 100 % of control | [7] 114 % of control | [8] 98 % of control | [14] 106 % of control | [9] 100 % of control

COC(=O)N1C2CC=C(C)CC21 (centres undefined)
inactive: dose: 75.0 mg/kg/injection, schedule: Q01DX001 (ip), vehicle: saline 94 % of control | dose: 150.0 mg/kg/injection, schedule: Q01DX001 (ip), vehicle: saline 104 % of control | dose: 300.0 mg/kg/injection, schedule: Q01DX001 (ip), vehicle: saline 100 % of control

O=C1c2cc(Br)cc(Br)c2NCCC1(Br)Br
inactive: [10] 91 % of control | [11] 91 % of control | [12] 94 % of control

Cn1c2c(c3ccccc31)C(=C(c1ccccc1)c1ccccc1)c1ccccc1-2
inactive: [1] 87 % of control | dose: 200.0 mg/kg/injection, schedule: Q04DX002 (ip), vehicle: saline with Tween-80 87 % of control
